Measured values published in ChEMBL document CHEMBL1201862, “PubChem BioAssay data set” (2004).
Activity calls are given as the source filed them.

What was measured:
[1] = target: T1, Bcl-2-like protein 10 (Homo sapiens, UniProt Q9HD36); assay: Concentration-response of Bcl-B inhibitors by biochemical FP with TR3 (AID 1243); assay type: functional
T1 sequence (Q9HD36 whole entry): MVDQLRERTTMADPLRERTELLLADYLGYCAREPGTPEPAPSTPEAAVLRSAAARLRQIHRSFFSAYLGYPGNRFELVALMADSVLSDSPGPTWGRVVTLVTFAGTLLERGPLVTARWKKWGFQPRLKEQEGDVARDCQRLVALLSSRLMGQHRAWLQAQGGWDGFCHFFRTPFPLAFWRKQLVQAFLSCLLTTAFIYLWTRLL

[2] = luciferase reporter signal suppression in cells – H4 neuroglioma cells, luminescence, dose response (AID 1990); assay type: functional, cell-based
[3] = target: T2, Neuropeptide Y receptor type 1 (Homo sapiens, UniProt P25929); assay type: functional;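 on IC50: HEK293 cells with a CNG channel challenged with NPY then isoproterenol; potency as antagonist that reverses NPY suppression of cAMP signal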
[4] = Luminescence Cell-Based Dose Response HTS to Identify Inhibitors of 5'UTR Stem-Loop Driven Prion Protein mRNA Translation in H4 Neuroglioblastoma Cells. [Related pubchem assays: 1827 (Project Summary), 1813 (Primary HTS)]; assay type: functional
[5] = alpha-synuclein stem-loop luciferase translation blockers – H4 neuroglioma cells, luminescence, confirmation (AID 1988); assay type: functional, cell-based
[6] = target: T3, Neuropeptide Y receptor type 2 (Homo sapiens, UniProt P49146); assay type: functional, cell-based;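 on IC50: HEK293 cells expressing the receptor and a CNG channel; stimulus was NPY near EC95 followed by isoproterenol to raise cAMP; antagonist potency measured as restoring cAMP signal that NPY suppresses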
[7] = target: Photoreceptor-specific nuclear receptor (Homo sapiens, UniProt Q9Y5X4); assay type: functional;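 further: potency for compounds that break the NR2E3 corepressor complex and count as activators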
[8] = target: Peroxisome proliferator-activated receptor gamma/Nuclear receptor corepressor 2 (Homo sapiens, UniProt P37231+Q9Y618); assay type: functional
[9] = test system: HEK293; assay: Fluorescence-based counterscreen for potentiators or agonists of NPY-Y2: cell-based high-throughput dose response assay to identify inhibitors of cyclic nucleotide gated ion channel (CNGC) activity. In this assay, the parental HEK293 cell line transfected with a cyclic-nucleotide gated ion channel (CNGC)-based cAMP sensor is used to measure inhibition of isoproterenol-induced CNGC activity by test compound.; assay type: functional; settings: Homo sapiens
[10] = decrease of insulin promoter-GFP reporter – imaging, high-content screening, mouse beta cells (AID 1628); assay type: functional; settings: MIN6
[11] = target: T3, Neuropeptide Y receptor type 2; assay: Fluorescence-based cell-based high-throughput dose response assay for agonists of NPY-Y2. [Related pubchem assays: 1703 (Screening assay (CNGC inhibitors).), 1359 (Screening assay (NPY-Y2 potentiators or agonists).), 1304 (Screening assay (NPY-Y1 potentiators or agonists).), 1710 (Screening assay (NPY-Y2 agonists).), 1791 (Summary AID.)]; assay type: functional
[12] = MIN6 cell viability loss – mouse insulinoma, cytotoxicity control, dose response (AID 2122); assay type: functional;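 further: confirmatory high-throughput counterscreen run to flag cytotoxic compounds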
[13] = target: T2, Neuropeptide Y receptor type 1; assay: Fluorescence-based counterscreen for agonists of NPY-Y2: cell-based high-throughput dose response assay for agonists of NPY-Y1.; assay type: functional
[14] = target: Tumor necrosis factor (Homo sapiens, UniProt P01375); assay: analog potency on TNFa NF-kB signaling – cell-based, revised, SAR follow-up (AID 2337); assay type: functional
[15] = target: T4, Nucleotide-binding oligomerization domain-containing protein 1 (Homo sapiens, UniProt Q9Y239); assay: blockers of NOD1 pathway activity – revised, SAR follow-up (AID 2333); assay type: functional
T4 sequence (Q9Y239 whole entry): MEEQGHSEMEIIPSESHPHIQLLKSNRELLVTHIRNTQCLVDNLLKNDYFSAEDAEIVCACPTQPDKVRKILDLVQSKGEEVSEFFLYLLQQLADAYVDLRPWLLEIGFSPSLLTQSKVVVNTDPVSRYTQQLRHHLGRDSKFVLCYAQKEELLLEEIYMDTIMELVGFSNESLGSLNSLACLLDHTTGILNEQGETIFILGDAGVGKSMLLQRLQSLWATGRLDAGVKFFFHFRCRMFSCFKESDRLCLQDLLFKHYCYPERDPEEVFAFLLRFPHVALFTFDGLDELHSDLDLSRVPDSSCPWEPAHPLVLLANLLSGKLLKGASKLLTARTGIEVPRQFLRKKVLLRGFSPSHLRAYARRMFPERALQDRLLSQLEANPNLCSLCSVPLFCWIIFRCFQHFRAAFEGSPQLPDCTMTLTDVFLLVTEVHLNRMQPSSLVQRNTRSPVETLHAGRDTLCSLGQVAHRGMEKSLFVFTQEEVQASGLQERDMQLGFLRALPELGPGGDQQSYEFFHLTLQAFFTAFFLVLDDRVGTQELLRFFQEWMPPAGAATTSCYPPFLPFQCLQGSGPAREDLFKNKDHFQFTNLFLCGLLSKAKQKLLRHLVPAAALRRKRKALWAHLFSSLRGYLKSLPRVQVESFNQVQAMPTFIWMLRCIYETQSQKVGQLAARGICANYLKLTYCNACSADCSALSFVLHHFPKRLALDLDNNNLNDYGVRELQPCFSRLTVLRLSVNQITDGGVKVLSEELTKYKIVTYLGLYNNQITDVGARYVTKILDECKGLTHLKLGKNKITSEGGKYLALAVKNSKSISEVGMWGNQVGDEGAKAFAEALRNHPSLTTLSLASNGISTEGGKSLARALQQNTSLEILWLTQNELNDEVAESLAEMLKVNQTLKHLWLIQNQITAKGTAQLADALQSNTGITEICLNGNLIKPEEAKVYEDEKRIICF

[16] = test system: INS1; assay: INS-1E survival protection against cytokine death – cell-based, luminescence, retest, dose response (AID 449756); assay type: functional; settings: Rattus norvegicus;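 further: cell death triggered by IL-1 beta plus TNF-alpha plus IFN-gamma mixture; protective hits raise ATP signal compared with cytokine alone wells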
[17] = test system: Vero; assay: cells; assay type: functional; settings: Chlorocebus sabaeus
[18] = test system: HEK293; assay: cells; settings: Homo sapiens
[19] = test system: Staphylococcus aureus; assay: Inhibitors of Bacterial Quorum Sensing Structure Activity Relationship (SAR) Analysis: Dose Response Assay. [Related pubchem assays: 700, 527 ]; assay type: functional, organism-based
[20] = target: Lysosomal acid glucosylceramidase (Homo sapiens, UniProt P04062); assay: Dose response cell-based high throughput screening assay to identify enhancers of beta-glucosidase activity. [Related pubchem assays: 784 ]; assay type: functional
[21] = cells; assay type: functional, cell-based
[22] = cells; assay type: functional, cell-based; remark: listed apart in the source
[23] = target: T5, Eukaryotic translation initiation factor 2-alpha kinase 3 (Homo sapiens, UniProt Q9NZJ5); assay: Dose response cell-based high-throughput screening assay to measure PERK inhibition. [Related pubchem assays: 1416 ]; assay type: functional
[24] = target: T5, Eukaryotic translation initiation factor 2-alpha kinase 3; assay: Counterscreen assay for PERK inhibitors: Dose response cell-based high throughput screening assay to measure inhibition of PERK at 6 hours. [Related pubchem assays: 1522, 1416 ]; assay type: functional
[25] = target: Large T antigen (Simian virus 40, UniProt P03070); assay type: functional, Betapolyomavirus macacae;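 further: Confirmatory-stage PubChem screen for compounds that inhibit SV40 T antigen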
[26] = target: T6, Mannose-6-phosphate isomerase (Homo sapiens, UniProt P34949); assay: MPI enzyme activity inhibition – biochemical, fluorescence intensity, coupled assay, primary screen (AID 1209)
T6 sequence (P34949 whole entry): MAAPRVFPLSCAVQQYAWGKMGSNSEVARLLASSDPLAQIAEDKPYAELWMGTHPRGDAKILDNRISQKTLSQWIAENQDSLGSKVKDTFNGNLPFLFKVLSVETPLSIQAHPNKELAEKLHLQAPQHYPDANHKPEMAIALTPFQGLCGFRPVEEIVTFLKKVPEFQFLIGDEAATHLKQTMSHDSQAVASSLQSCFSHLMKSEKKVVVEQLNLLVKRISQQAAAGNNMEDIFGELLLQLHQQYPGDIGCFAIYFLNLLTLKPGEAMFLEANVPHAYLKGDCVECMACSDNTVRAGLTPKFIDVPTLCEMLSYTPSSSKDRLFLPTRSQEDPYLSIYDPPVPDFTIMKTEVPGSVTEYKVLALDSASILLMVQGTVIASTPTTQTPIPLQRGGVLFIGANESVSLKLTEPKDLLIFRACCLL

[27] = target: Transitional endoplasmic reticulum ATPase (Homo sapiens, UniProt P55072, C522A); assay: C522A mutant p97 ATPase inhibitors, dose response, counter-screen for p97 inhibitor project, biochemical, luminescence (AID 1544)
[28] = target: Transitional endoplasmic reticulum ATPase (Homo sapiens, UniProt P55072); assay: p97 ATPase inhibitors, dose response, biochemical (AID 1534)
[29] = target: G2/mitotic-specific cyclin-B1 (Homo sapiens, UniProt P14635); assay: Counterscreen assay for inhibitors of Wee1 degradation: dose response cell-based assay to identify inhibitors of cyclin B degradation. [Related pubchem assays: 1410, 1321 ]; assay type: functional
[30] = target: Wee1-like protein kinase (Homo sapiens, UniProt P30291); assay: Dose Response Cell-based Assay for Inhibitors of Wee1 Degradation. [Related pubchem assays: 1410, 1321 ]; assay type: functional
[31] = HPDE-C7 pancreatic duct cell viability loss – fluorescence, HTS (AID 430); assay type: functional, cell-based; settings: Homo sapiens
[32] = microbe, parasite or virus in culture; assay type: functional; settings: Mycobacterium tuberculosis
[33] = viability loss of HPDE-C7K cells – cell-based, fluorescence, HTS, primary screen (AID 431); assay type: functional; settings: Homo sapiens
[34] = viability of PTEN-deleted HCT116 cells – cell-based, HCT116 PTEN knockout, dose response (AID 1047); assay type: functional;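 further: HCT116 colon tumor cells with PTEN knocked out; cells exposed to compound for 60 hours before readout; potency for loss of cell viability measured by luminescence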
[35] = target: T7, Calpain-2 catalytic subunit (Sus scrofa, UniProt P43367); assay: m-calpain protease blockers, concentration series – biochemical, fluorogenic peptide substrate, dose response (AID 1420); assay type: functional
T7 sequence (P43367 whole entry): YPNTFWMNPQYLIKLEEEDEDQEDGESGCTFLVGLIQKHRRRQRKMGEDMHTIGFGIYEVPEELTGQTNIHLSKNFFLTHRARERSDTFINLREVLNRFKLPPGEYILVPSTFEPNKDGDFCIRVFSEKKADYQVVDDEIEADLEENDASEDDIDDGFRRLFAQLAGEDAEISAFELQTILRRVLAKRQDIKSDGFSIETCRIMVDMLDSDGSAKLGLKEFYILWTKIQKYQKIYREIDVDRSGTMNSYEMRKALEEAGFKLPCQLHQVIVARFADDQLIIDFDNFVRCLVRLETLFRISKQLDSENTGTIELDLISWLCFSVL

[36] = viability of HCT116 lacking mutant beta-catenin – cell-based, human colon tumor, dose response (AID 1045); assay type: functional;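 further: HCT116 colon tumor cells with beta catenin knocked out; cells exposed to compound for 60 hours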
[37] = THP-1 cell cytotoxicity, dose response, cytotoxicity control for non-replicating M. tuberculosis project (AID 489025); assay type: functional
[38] = HepG2 cell cytotoxicity, dose response, cytotoxicity control for non-replicating M. tuberculosis project (AID 489018); assay type: functional; settings: Mycobacterium tuberculosis
[39] = Vero E6 cell cytotoxicity, dose response, cytotoxicity control for non-replicating M. tuberculosis project, secondary assay (AID 492998); assay type: functional, VeroE6; settings: Vero C1008
[40] = cells; assay type: functional

T5 sequence (Q9NZJ5 whole entry): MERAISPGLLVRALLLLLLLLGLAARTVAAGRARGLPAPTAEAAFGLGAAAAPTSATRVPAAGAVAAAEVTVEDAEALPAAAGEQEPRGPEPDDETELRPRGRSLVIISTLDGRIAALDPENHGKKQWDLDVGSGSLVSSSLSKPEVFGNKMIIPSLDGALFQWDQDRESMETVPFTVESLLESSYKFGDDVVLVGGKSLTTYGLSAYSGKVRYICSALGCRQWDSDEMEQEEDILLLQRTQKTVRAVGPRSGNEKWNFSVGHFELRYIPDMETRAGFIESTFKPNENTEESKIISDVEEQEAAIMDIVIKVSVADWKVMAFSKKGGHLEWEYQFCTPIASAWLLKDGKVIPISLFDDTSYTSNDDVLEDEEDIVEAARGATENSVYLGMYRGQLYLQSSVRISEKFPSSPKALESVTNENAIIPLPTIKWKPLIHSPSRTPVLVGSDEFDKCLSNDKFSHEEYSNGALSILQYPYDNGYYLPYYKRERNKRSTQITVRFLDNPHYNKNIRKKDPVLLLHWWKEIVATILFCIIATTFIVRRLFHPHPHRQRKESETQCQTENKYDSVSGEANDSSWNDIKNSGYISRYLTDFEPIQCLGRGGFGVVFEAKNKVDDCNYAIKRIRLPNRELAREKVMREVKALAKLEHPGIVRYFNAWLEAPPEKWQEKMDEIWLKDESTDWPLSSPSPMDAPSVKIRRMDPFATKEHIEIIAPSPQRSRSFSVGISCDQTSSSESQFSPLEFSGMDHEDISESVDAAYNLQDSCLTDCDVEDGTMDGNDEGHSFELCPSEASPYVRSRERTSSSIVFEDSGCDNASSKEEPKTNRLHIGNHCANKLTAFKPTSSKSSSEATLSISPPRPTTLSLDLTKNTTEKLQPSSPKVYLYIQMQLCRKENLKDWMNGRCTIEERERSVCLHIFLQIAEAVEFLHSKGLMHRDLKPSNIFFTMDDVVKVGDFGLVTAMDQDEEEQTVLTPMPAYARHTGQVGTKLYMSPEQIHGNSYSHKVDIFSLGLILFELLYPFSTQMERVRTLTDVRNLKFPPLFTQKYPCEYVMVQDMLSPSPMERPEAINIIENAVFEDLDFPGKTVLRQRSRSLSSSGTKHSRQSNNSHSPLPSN
T2 sequence (P25929 whole entry): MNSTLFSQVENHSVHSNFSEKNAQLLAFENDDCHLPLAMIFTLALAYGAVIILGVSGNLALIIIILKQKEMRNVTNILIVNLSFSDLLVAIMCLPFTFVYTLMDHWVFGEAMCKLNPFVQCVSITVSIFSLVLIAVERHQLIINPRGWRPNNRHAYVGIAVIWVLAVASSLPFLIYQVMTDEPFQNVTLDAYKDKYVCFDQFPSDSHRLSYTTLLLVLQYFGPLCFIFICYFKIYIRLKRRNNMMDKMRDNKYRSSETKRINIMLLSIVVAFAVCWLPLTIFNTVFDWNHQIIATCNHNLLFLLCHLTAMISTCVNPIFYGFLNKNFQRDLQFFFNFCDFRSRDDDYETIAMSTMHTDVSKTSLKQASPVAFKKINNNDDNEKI
T3 sequence (P49146 whole entry): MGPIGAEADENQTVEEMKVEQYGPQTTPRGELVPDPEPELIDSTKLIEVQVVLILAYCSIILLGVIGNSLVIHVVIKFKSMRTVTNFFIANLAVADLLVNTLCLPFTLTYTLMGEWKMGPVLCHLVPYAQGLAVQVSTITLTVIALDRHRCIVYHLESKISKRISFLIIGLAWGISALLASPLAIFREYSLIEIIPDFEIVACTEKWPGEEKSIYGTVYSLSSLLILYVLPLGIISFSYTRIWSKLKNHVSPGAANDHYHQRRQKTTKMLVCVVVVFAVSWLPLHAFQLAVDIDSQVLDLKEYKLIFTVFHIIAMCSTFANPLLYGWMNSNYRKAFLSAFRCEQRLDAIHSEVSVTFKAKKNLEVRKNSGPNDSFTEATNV
G2/mitotic-specific cyclin-B1, sequence (P14635 whole entry): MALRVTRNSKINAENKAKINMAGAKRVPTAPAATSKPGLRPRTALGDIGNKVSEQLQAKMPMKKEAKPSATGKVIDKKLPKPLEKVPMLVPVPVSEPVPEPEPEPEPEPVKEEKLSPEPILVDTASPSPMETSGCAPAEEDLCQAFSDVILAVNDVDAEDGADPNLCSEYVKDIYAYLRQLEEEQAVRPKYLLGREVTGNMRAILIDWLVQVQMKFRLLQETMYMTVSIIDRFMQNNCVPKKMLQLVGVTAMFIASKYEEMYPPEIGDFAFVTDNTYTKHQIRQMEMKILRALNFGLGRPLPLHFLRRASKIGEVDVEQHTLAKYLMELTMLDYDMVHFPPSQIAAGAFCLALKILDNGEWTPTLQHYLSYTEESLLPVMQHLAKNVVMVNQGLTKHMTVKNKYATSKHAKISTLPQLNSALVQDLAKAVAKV
Lysosomal acid glucosylceramidase, sequence (P04062 whole entry): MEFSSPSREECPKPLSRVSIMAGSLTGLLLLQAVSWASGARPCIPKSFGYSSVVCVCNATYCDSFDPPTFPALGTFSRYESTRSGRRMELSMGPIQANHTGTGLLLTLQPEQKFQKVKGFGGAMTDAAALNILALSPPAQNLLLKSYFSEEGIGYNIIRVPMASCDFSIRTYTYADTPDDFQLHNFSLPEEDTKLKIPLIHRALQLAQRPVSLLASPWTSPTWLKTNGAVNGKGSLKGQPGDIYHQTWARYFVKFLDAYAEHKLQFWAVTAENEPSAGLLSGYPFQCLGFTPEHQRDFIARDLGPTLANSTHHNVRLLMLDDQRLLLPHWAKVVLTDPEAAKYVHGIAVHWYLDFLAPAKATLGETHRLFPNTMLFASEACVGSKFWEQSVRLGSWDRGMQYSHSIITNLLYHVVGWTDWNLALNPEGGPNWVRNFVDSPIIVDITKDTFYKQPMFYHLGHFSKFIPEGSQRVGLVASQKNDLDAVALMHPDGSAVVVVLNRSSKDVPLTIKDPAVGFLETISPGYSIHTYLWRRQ
Transitional endoplasmic reticulum ATPase (Homo sapiens, UniProt P55072), sequence (P55072 whole entry): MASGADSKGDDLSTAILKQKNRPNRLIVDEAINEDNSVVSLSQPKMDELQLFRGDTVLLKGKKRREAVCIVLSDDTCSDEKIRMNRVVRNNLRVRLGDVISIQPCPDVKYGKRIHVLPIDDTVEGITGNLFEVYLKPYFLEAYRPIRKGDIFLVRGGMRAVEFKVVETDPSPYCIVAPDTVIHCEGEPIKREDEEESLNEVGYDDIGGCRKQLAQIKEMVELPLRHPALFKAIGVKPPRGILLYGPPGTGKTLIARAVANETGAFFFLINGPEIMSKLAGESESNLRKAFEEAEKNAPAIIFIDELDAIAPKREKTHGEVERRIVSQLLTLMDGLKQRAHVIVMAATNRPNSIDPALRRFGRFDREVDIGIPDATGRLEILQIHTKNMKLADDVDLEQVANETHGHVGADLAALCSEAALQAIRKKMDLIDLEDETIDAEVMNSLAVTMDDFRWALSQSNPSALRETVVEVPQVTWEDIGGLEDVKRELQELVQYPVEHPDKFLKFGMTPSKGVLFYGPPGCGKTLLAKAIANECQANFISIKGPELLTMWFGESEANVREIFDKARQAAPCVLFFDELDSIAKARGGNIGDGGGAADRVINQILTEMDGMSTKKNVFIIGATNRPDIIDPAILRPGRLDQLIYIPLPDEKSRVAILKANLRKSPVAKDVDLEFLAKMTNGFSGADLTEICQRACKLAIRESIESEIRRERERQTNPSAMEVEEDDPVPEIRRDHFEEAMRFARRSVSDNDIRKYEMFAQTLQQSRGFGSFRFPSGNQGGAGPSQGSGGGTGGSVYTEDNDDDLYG
Large T antigen, sequence (P03070 whole entry): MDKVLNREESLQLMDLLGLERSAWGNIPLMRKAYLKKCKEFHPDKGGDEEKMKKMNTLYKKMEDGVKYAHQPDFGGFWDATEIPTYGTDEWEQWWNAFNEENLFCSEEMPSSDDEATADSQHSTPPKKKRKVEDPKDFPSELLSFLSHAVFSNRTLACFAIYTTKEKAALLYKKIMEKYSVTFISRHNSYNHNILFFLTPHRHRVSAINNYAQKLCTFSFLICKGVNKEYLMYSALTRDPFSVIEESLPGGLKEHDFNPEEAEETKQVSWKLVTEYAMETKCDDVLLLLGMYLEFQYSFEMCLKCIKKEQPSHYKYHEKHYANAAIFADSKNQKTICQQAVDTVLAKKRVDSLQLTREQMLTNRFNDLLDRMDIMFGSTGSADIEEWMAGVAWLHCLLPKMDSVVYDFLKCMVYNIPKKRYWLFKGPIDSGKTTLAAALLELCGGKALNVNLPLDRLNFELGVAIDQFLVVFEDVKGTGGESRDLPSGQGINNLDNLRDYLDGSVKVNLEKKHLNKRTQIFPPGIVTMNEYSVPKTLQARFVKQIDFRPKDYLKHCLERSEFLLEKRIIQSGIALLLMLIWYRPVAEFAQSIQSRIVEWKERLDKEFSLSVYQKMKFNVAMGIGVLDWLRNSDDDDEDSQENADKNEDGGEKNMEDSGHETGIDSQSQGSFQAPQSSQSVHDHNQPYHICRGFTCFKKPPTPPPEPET
Photoreceptor-specific nuclear receptor, sequence (Q9Y5X4 whole entry): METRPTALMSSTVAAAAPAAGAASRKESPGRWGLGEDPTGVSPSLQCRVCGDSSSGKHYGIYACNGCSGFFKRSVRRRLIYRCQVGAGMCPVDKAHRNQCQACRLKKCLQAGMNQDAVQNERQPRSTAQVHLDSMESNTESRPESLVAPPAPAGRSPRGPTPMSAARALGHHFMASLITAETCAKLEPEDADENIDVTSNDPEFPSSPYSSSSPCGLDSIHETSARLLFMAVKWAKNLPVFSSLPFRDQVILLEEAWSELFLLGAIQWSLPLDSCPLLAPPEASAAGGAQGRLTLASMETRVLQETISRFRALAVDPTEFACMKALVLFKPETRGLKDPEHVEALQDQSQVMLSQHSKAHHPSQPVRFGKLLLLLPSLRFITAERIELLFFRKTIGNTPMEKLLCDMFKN
Tumor necrosis factor, sequence (P01375 whole entry, the tested form may be a part): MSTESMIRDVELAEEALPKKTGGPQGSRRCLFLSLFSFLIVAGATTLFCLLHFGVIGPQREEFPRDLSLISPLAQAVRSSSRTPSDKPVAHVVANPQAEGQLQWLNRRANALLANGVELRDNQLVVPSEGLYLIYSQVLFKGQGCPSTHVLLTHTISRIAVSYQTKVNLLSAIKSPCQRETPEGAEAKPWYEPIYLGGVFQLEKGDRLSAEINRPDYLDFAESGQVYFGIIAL

Compound: COc1ccc(Nc2ccc(N)cc2)cc1
- EC50 [1]: 7.22 µM (active)

Compound: C/C=C(/C)C(=O)O[C@@H]1c2c(ccc3ccc(=O)oc23)O[C@@H]1C(C)(C)OC(=O)/C(C)=C\C
- EC50 [2]: 15.2 µM (active)
- IC50 [3]: 5.85 µM (active)
- EC50 [4]: > 120 µM (not active)
- EC50 [5]: > 120 µM (not active)
- IC50 [6]: 5.06 µM (active)

Compound: CC(C)Cc1c2c([nH]c(=S)c1C#N)CCCC2
- IC50 [7]: > 39.8 µM (not active)
- IC50 [8]: 6.27 µM (active)

Compound: O=C(Nc1cccc([N+](=O)[O-])c1)c1cc2ccccc2cc1O
- EC50 [9]: > 35.4 µM (not active)
- IC50 [10]: 2.73 µM (active)
- EC50 [11]: > 35.4 µM (not active)
- IC50 [12]: 2.72 µM (active)
- EC50 [13]: > 35.4 µM (not active)
- IC50 [14]: 2.2 µM (active)
- IC50 [15]: 1.48 µM (active)
- AC50 [16]: 3.67 µM (active)
- CC50 [17]: 3.95 µM (active)
- IC50 [18]: 11.8 µM (active)

Compound: CCc1ccc(S(=O)(=O)c2nnn3c2nc(O)c2ccccc23)cc1
- IC50 [19]: 244 nM (active)

Compound: COc1ccc(CNC(=O)CN(CC2CCCO2)C(=O)CNS(=O)(=O)c2ccc(C)cc2)cc1 (stereo not drawn)
- EC50 [20]: > 50 µM (not active)
- EC50 [21]: > 350 µM (not active)
- EC50 [22]: > 350 µM (not active)

Compound: COc1ccc2nc(NC(=O)CSc3nnc(C)n3N)sc2c1
- EC50 [23]: > 55.7 µM (not active)
- EC50 [24]: > 55.7 µM (not active)

Compound: Cc1ccc(Nc2nc(-c3ccc(O)c(O)c3)cs2)nc1
- IC50 [10]: 6.26 µM (active)
- IC50 [12]: 3.85 µM (active)
- IC50 [25]: 12.3 µM (active)
- IC50 [26]: 48.6 µM (active)

Compound: Cc1ccc2[nH]cc(C(=O)CCl)c2c1
- IC50 [27]: > 50 µM (not active)
- IC50 [28]: > 50 µM (not active)

Compound: [O-][n+]1onc2c3cc(-c4ccccc4)[nH]c3ccc21
- EC50 [29]: > 49.7 µM (not active)
- EC50 [30]: > 1.84 µM (active)
- EC50 [31]: 4.16 µM (active)
- CC50 [32]: 1.47 µM (active)
- EC50 [33]: 9.83 µM (active)
- EC50 [34]: 650 nM (active)
- IC50 [35]: 1.59 µM (not active)
- EC50 [36]: 597 nM (active)
- CC50 [37]: 1.57 µM (active)
- CC50 [38]: 2.6 µM (active)
- CC50 [39]: 1.27 µM (active)
- IC50 [40]: 670 nM (active)
- AC50 [16]: 2.52 µM (active)
